Laboratory results taken from patent publication US11802120B2, “Fused cyclic urea derivatives as CRHR2 antagonist” (RaQualia Pharma Inc., priority 2018, dated 2023).

What follows are molecules tested against T1, human CRHR2-alpha (Homo sapiens, UniProt Q13324) (assay: cAMP functional assay for human CRHR2 (LANCE Ultra cAMP, TR-FRET)). Settings: CHO-K1 cells expressing human CRHR2-alpha, agonist human urocortin2 at EC80, cAMP; read-out: IC50 against CRHR2.
T1 sequence (Q13324 1-411): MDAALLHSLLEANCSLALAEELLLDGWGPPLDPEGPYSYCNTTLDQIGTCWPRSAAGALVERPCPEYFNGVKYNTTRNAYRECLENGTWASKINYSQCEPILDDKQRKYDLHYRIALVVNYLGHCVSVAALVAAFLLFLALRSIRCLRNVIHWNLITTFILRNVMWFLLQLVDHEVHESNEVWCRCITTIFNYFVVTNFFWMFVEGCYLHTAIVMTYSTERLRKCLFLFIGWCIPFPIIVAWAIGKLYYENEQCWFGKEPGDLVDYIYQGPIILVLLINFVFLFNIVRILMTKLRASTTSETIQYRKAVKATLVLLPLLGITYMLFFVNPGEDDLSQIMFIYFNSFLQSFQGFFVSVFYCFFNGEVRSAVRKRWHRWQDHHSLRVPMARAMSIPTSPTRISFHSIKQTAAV
Format: cell-based
Summary of the method: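 CHO-K1 stable lines; 4,000 cells/well; compound 30 min, 25° C; EC80 agonist (human urocortin2 → CRHR2, CRF → CRHR1) 30 min, 25° C; buffer HBSS/0.1% BSA/0.5 mM IBMX/5 mM Hepes pH 7.4; Eu-cAMP tracer + ULight antibody 60 min; TR-FRET read; IC50 from % inhibition curves.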

SMILES | IC50
Cc1ncc(Cl)cc1C(=O)N[C@H]1CC[C@H](Cn2c(=O)n(-c3ccc4nccn4c3)c3ccccc32)CC1 [Example 186, 5-chloro-N-((1r,4r)-4-((3-(imidazo[1,2-a]pyridin-6-yl)-2-oxo-2,3-dihydro-1H-benzo [d]imidazol-1-yl)methyl)cyclohexyl)-2-methylnico-tinamide] | < 300 nM
Cn1ccc2cc(-n3c(=O)n(C[C@H]4CC[C@H](NC(=O)c5cc(Cl)cnc5C(F)F)CC4)c4cccnc43)cnc21 [Example 730, 5-chloro-2-(difluoromethyl)-N-((1r,4r)-4-((3-(1-methyl-1H-pyrrolo[2,3-b]pyridin-5-yl)-2-oxo-2,3-dihydro-1H-imidazo[4,5-b]pyridin-1-yl)methyl)cyclohexyl)nicotinamide] | < 300 nM
COc1ccc(-n2c(=O)n(C[C@H]3CC[C@H](NC(=O)c4cc(Cl)cnc4C)CC3)c3ccccc32)c(C#N)c1 [Example 231, 5-chloro-N-((1r,4r)-4-((3-(2-cyano-4-methoxyphenyl)-2-oxo-2,3-dihydro-1H-benzo[d]imidazol-1-yl)methyl)cyclo-hexyl)-2-methylnicotinamide] | < 300 nM
COc1ccc(-n2c(=O)n(C[C@H]3CC[C@H](NC(=O)c4cc(Cl)cnc4C(F)(F)F)CC3)c3ccccc32)cn1 [Example 228, 5-chloro-N-((1r,4r)-4-((3-(6-methoxypyridin-3-yl)-2-oxo-2,3-dihydro-1H-benzo[d]imidazol-1-yl)methyl)cyclo-hexyl)-2-(trifluoromethyl) nicotinamide] | < 300 nM
CN1CCN(c2ccc(-n3c(=O)n(C[C@H]4CC[C@H](NC(=O)c5cc(Cl)cnc5C(F)F)CC4)c4ccccc43)cn2)C1=O [Example 524, 5-chloro-2-(difluoromethyl)-N-((1r,4r)-4-((3-(6-(3-methyl-2-oxoimidazolidin-1-yl)pyridin-3-yl)-2-oxo-2,3-dihydro-1H-benzo[d]imidazol-1-yl)methyl)cyclohexyl) nicotinamide] | < 300 nM
O=C(N[C@H]1CC[C@H](Cn2c(=O)n(-c3ccc(-c4ncc[nH]4)nc3)c3ccccc32)CC1)c1cc(Cl)cnc1C(F)F [Example 733, N-((1r,4r)-4-((3-(6-(1H-imidazol-2-yl)pyridin-3-yl)-2-oxo-2,3-dihydro-1H-benzo[d]imidazol-1-yl)methyl)cyclohexyl)-5-chloro-2-(difluoromethyl)nicotinamide] | < 300 nM
O=C(N[C@H]1CC[C@H](Cn2c(=O)n(Cc3ccncc3)c3ccccc32)CC1)c1cc(Cl)ccc1C(F)(F)F [Example 281, 5-chloro-N-((1r,4r)-4-((2-oxo-3-(pyridin-4-ylmethyl)-2,3-dihydro-1H-benzo[d]imidazol-1-yl)methyl)cyclohexyl)-2-(trifluoromethyl)benzamide] | < 300 nM
CNC(=O)c1ccc(-n2c(=O)n(C[C@H]3CC[C@H](NC(=O)c4cc(Cl)cnc4C(F)F)CC3)c3cccc(F)c32)cn1 [Example 628, 5-(3-(((1 r,4r)-4-(5-chloro-2-(difluoromethyl)nicotinamido)cyclohexyl)methyl)-7-fluoro-2-oxo-2,3-dihydro-1H-benzo [d]imidazol-1-yl)-N-methylpicolinamide] | < 300 nM
Cc1ncc(Cl)cc1C(=O)N[C@H]1CC[C@H](Cn2c(=O)n(-c3ccc(-c4nccs4)cc3)c3ccccc32)CC1 [Example 518, 5-chloro-2-methyl-N-((1r,4r)-4-((2-oxo-3-(4-(thiazol-2-yl)phenyl)-2,3-dihydro-1H-benzo [d]imidazol-1-yl)methyl)cyclo-hexyl)nicotinamide] | < 300 nM
Cc1ncc(Cl)cc1C(=O)N[C@H]1CC[C@H](Cn2c(=O)n(-c3cccc(-c4cnco4)c3)c3ccccc32)CC1 [Example 488, 5-chloro-2-methyl-N-((1r,4r)-4-((3-(3-(oxazol-5-yl)phenyl)-2-oxo-2,3-dihydro-1H-benzo[d]imidazol-1-yl)methyl)cyclo-hexyl)nicotinamide] | < 300 nM
C[C@H](O)C(=O)Nc1ccc(-n2c(=O)n(C[C@H]3CC[C@H](NC(=O)c4cc(Cl)cnc4C(F)F)CC3)c3ccccc32)cn1 [Example 671, 5-chloro-2-(difluoromethyl)-N-((1S,4r)-4-((3-(6-((S)-2-hydroxypropanamido)pyridin-3-yl)-2-oxo-2,3-dihydro-1H-benzo[d]imidazol-1-yl)methyl)cyclohexyl)nicotinamide] | < 300 nM
O=C(N[C@H]1CC[C@H](Cn2c(=O)n(-c3ccccc3Cl)c3cccnc32)CC1)c1cc(Cl)cnc1C(F)F [Example 630, 5-chloro-N-((1r,4r)-4-((1-(2-chlorophenyl)-2-oxo-1H-imidazo[4,5-b]pyridin-3(2H)-yl)methyl)cyclohexyl)-2-(difluoromethyl)nicotinamide] | < 300 nM
O=C(N[C@H]1CC[C@H](Cn2c(=O)n(-c3ccc(CO)cc3)c3ccccc32)CC1)c1cc(Cl)cnc1C(F)F [Example 384, 5-chloro-2-(difluoromethyl)-N-((1r,4r)-4-((3-(4-(hydroxy-methyl)phenyl)-2-oxo-2,3-dihydro-1H-benzo[d]imidazol-1-yl)methyl)cyclohexyl) nicotinamide] | < 300 nM
O=C(N[C@H]1CC[C@H](Cn2c(=O)n(-c3ccc(NCCO)cn3)c3ccccc32)CC1)c1cc(Cl)cnc1C(F)F [Example 715, 5-chloro-2-(difluoromethyl)-N-((1r,4r)-4-((3-(5-((2-hydroxyethyl)amino)pyridin-2-yl)-2-oxo-2,3-dihydro-1H-benzo[d]imidazol-1-yl)methyl)cyclohexyl)nicotinamide] | < 300 nM
CNC(=O)c1ccc(-n2c(=O)n(C[C@H]3CC[C@H](NC(=O)c4cc(Cl)ccc4OC(F)F)CC3)c3ccccc32)cn1 [Example 533, 5-(3-(((1r,4r)-4-(5-chloro-2-(difluoromethoxy)benzamido)cyclohexyl)methyl)-2-oxo-2,3-dihydro-1H-benzo[d]imidazol-1-yl)-N-methylpicolinamide] | < 300 nM
Cc1ncc(Cl)cc1C(=O)N[C@H]1CC[C@H](Cn2c(=O)n(-c3ccc(-n4cccn4)cc3)c3ccccc32)CC1 [Example 471, N-((1r,4r)-4-((3-(4-(1H-pyrazol-1-yl)phenyl)-2-oxo-2,3-dihydro-1H-benzo[d]imidazol-1-yl)methyl)cyclohexyl)-5-chloro-2-methylnicotinamide] | < 300 nM
Cc1ncc(Cl)cc1C(=O)N[C@H]1CC[C@H](Cn2c(=O)n(-c3ccc4c(c3)cc(CO)n4C)c3ccccc32)CC1 [Example 497, 5-chloro-N-((1r,4r)-4-((3-(2-(hydroxymethyl)-1-methyl-1H-indol-5-yl)-2-oxo-2,3-dihydro-1H-benzo[d]imidazol-1-yl)methyl)cyclohexyl)-2-methylnicotinamide] | < 300 nM
Cc1ncc(Cl)cc1C(=O)N[C@H]1CC[C@H](Cn2c(=O)n(-c3ccc(-c4ncc[nH]4)nc3)c3ccccc32)CC1 [Example 695, N-((1r,4r)-4-((3-(6-(1H-imidazol-2-yl)pyridin-3-yl)-2-oxo-2,3-dihydro-1H-benzo[d]imidazol-1-yl)methyl)cyclohexyl)-5-chloro-2-methylnicotinamide] | < 300 nM
Cn1ncc2c(-n3c(=O)n(C[C@H]4CC[C@H](NC(=O)c5cc(Cl)cnc5C(F)F)CC4)c4ccccc43)cccc21 [Example 374, 5-chloro-2-(difluoromethyl)-N-((1r,4r)-4-((3-(1-methyl-1H-indazol-4-yl)-2-oxo-2,3-dihydro-1H-benzo[d]imidazol-1-yl)methyl)cyclohexyl) nicotinamide] | < 300 nM
Cc1ncc(Cl)cc1C(=O)N[C@H]1CC[C@H](Cn2c(=O)n(-c3ccccc3Cl)c3cccnc32)CC1 [Example 256, 5-chloro-N-((1r,4r)-4-((1-(2-chlorophenyl)-2-oxo-1H-imidazo[4,5-b]pyridin-3(2H)-yl)methyl)cyclohexyl)-2-methylnicotinamide] | < 300 nM
Cc1ncc(Cl)cc1C(=O)N[C@H]1CC[C@H](Cn2c(=O)n(-c3cnc4c(cnn4CCO)c3)c3ccccc32)CC1 [Example 253, 5-chloro-N-((1r,4r)-4-((3-(1-(2-hydroxyethyl)-1H-pyrazolo[3,4-b]pyridin-5-yl)-2-oxo-2,3-dihydro-1H-benzo[d]imidazol-1-yl)methyl)cyclohexyl)-2-methylnicotinamide] | < 300 nM
Cc1ncc(Cl)cc1C(=O)N[C@H]1CC[C@H](Cn2c(=O)n(-c3cnc4c(cnn4CC4CC4)c3)c3ccccc32)CC1 [Example 252, 5-chloro-N-((1r,4r)-4-((3-(1-(cyclopropylmethyl)-1H-pyrazolo[3,4-b]pyridin-5-yl)-2-oxo-2,3-dihydro-1H-benzo [d]imidazol-1-yl)methyl)cyclo-hexyl)-2-methylnicotinamide] | < 300 nM
O=C(N[C@H]1CC[C@H](Cn2c(=O)n(-c3ccccc3Cl)c3ncccc32)CC1)c1cc(Cl)cnc1C(F)(F)F [Example 288, 5-chloro-N-((1r,4r)-4-((3-(2-chlorophenyl)-2-oxo-2,3-dihydro-1H-imidazo[4,5-b]pyridin-1-yl)methyl)cyclo-hexyl)-2-(trifluoromethyl) nicotinamide] | < 300 nM
O=C(N[C@H]1CC[C@H](Cn2c(=O)n(-c3ccn4cncc4c3)c3ccccc32)CC1)c1cc(Cl)cnc1C(F)F [Example 415, 5-chloro-2-(difluoromethyl)-N-((1r,4r)-4-((3-(imidazo[1,5-a]pyridin-7-yl)-2-oxo-2,3-dihydro-1H-benzo[d]imidazol-1-yl)methyl)cyclohexyl)nicotinamide] | < 300 nM
